Measured values reported in US20240383852A1, “ANTI-VIRAL COMPOUNDS” (INFEX Therapeutics Limited, priority 2021, published 2024).
Counter-ions that a name gives are not always drawn. Like-named read-outs stand apart in the source and are kept apart here.

What was measured:
SARS-CoV-2 PLpro = molecular target: T1, SARS-CoV-2 PLpro (Severe acute respiratory syndrome coronavirus 2, UniProt P0DTD1); assay: biochemical
T1 construct: containing 60 nM papain-like protease

[1] = system: human Hep G2 cells (ATCC HB-8065); assay: Cytotoxicity in Hep G2 cells (CellTiter-Glo); type: cell-based
[2] = 60 nM papain-like protease, 50 μM Z-RLRGG-AMC, pH 7.5, 37° C., read-out: SARS-CoV-2 PLpro IC50
[3] = Hep G2 cells, 100 μM test article, 24-hour exposure

COc1cc(-c2cnn(C)c2)cc([C@@H](C)NC(=O)c2cc(N3CC4CN(C)CC4C3)ccc2C)c1 (stereo partly drawn) [Example 242, N-[(1R)-1-[3-Methoxy-5-(1-methylpyrazol-4-yl)phenyl]ethyl]-2-methyl-5-(2-methyl-1,3,3a,4,6,6a-hexahydropyrrolo[3,4-c]pyrrol-5-yl)benzamide]
IC50 (SARS-CoV-2 PLpro; [2]): < 2000 nM
% Cell Viability [1, 3]: 62.4%

COc1cc(-c2cnn(C)c2)cc([C@@H](C)NC(=O)c2cc(N3CCN4CCCC4C3)ccc2C)c1 (stereo partly drawn) [Example 243, 5-(3,4,6,7,8,8a-Hexahydro-1H-pyrrolo[1,2-a]pyrazin-2-yl)-N-[(1R)-1-[3-methoxy-5-(1-methylpyrazol-4-yl)phenyl]ethyl]-2-methyl-benzamide]
IC50 (SARS-CoV-2 PLpro; [2]): < 2000 nM
% Cell Viability [1, 3]: 70.9%

COc1ccc([C@@H](C)NC(=O)c2cc(N3CCN(C)CC3)ccc2C)cc1-c1cnn(C)c1C [Example 246, N-[(1R)-1-[3-(1,5-Dimethylpyrazol-4-yl)-4-methoxy-phenyl]ethyl]-2-methyl-5-(4-methylpiperazin-1-yl)benzamide]
IC50 (SARS-CoV-2 PLpro; [2]): < 2000 nM
% Cell Viability [1, 3]: 81.4%

COc1cc(-c2cnn(C)c2)cc([C@@H](C)NC(=O)c2cc(N3CCCN(C)CC3)ccc2C)c1 [Example 247, N-[(1R)-1-[3-Methoxy-5-(1-methylpyrazol-4-yl)phenyl]ethyl]-2-methyl-5-(4-methyl-1,4-diazepan-1-yl)benzamide]
IC50 (SARS-CoV-2 PLpro; [2]): < 2000 nM
% Cell Viability [1, 3]: 56.7%

COc1cc(-c2ccnn2C)cc([C@@H](C)NC(=O)c2cc(N3C[C@H]4C[C@@H]3CN4C)ccc2C)c1 [Example 248, N-[(1R)-1-[3-Methoxy-5-(2-methylpyrazol-3-yl)phenyl]ethyl]-2-methyl-5-[(1R,4R)-5-methyl-2,5-diazabicyclo[2.2.1]heptan-2-yl]benzamide]
IC50 (SARS-CoV-2 PLpro; [2]): < 2000 nM
% Cell Viability [1, 3]: 55.3%

Cc1ccc(N2CCN(C)CC2)cc1C(=O)N[C@H](C)c1ccc(OCc2ccccc2)c(-c2cnn(C)c2)c1 [Example 249, N-[(1R)-1-[4-Benzyloxy-3-(1-methylpyrazol-4-yl)phenyl]ethyl]-2-methyl-5-(4-methylpiperazin-1-yl)benzamide]
IC50 (SARS-CoV-2 PLpro; [2]): < 2000 nM
% Cell Viability [1, 3]: 0.5%

Cc1ccc(N2CCN(C)CC2)cc1C(=O)N[C@H](C)c1ccc(OC(C)C)c(-c2cnn(C)c2)c1 [Example 250, N-[(1R)-1-[4-isopropoxy-3-(1-methylpyrazol-4-yl)phenyl]ethyl]-2-methyl-5-(4-methylpiperazin-1-yl)benzamide]
IC50 (SARS-CoV-2 PLpro; [2]): < 2000 nM
% Cell Viability [1, 3]: 93.0%

COc1cc(-c2cn(C)nc2C)cc([C@@H](C)NC(=O)c2cc(N3CC4CN(C)CC4C3)ccc2C)c1 (stereo partly drawn) [Example 254, N-[(1R)-1-[3-(1,3-Dimethylpyrazol-4-yl)-5-methoxy-phenyl]ethyl]-2-methyl-5-(2-methyl-1,3,3a,4,6,6a-hexahydropyrrolo[3,4-c]pyrrol-5-yl)benzamide]
IC50 (SARS-CoV-2 PLpro; [2]): < 2000 nM
% Cell Viability [1, 3]: 57.0%

COc1cc(-c2cn(C)nc2C)cc([C@@H](C)NC(=O)c2cc(N3CCN(CC4CC4)CC3)ccc2C)c1 [Example 255, 5-[4-(Cyclopropylmethyl)piperazin-1-yl]-N-[(1R)-1-[3-(1,3-dimethylpyrazol-4-yl)-5-methoxy-phenyl]ethyl]-2-methyl-benzamide hydrochloride salt]
IC50 (SARS-CoV-2 PLpro; [2]): < 2000 nM
% Cell Viability [1, 3]: 70.3%

COc1cc(-c2cn(C)nc2C)cc([C@@H](C)NC(=O)c2cc(N3CCN4CCCC4C3)ccc2C)c1 (stereo partly drawn) [Example 256, 5-(3,4,6,7,8,8a-Hexahydro-1H-pyrrolo[1,2-a]pyrazin-2-yl)-N-[(1R)-1-[3-(1,3-dimethylpyrazol-4-yl)-5-methoxy-phenyl]ethyl]-2-methyl-benzamide]
IC50 (SARS-CoV-2 PLpro; [2]): < 2000 nM
% Cell Viability [1, 3]: 70.1%

COc1ccc([C@@H](C)NC(=O)c2cc(N3CC4(CCNCC4)C3)ccc2C)cc1-c1cnn(C)c1 [Example 258, 5-(2,7-Diazaspiro[3.5]nonan-2-yl)-N-[(1R)-1-[4-methoxy-3-(1-methylpyrazol-4-yl)phenyl]ethyl]-2-methyl-benzamide]
IC50 (SARS-CoV-2 PLpro; [2]): < 2000 nM
% Cell Viability [1, 3]: 81.8%

COc1ccc([C@@H](C)NC(=O)c2cc(N3CCC4(CC3)CNC4)ccc2C)cc1-c1cnn(C)c1 [Example 259, 5-(2,7-Diazaspiro[3.5]nonan-7-yl)-N-[(1R)-1-[4-methoxy-3-(1-methylpyrazol-4-yl)phenyl]ethyl]-2-methyl-benzamide]
IC50 (SARS-CoV-2 PLpro; [2]): < 2000 nM
% Cell Viability [1, 3]: 111.1%

COc1cc(-c2cnn(C)c2)cc([C@@H](C)NC(=O)c2cc(N3CC4CNCC4C3)ccc2C)c1 (stereo partly drawn) [Example 262, 5-(2,3,3a,4,6,6a-Hexahydro-1H-pyrrolo[3,4-c]pyrrol-5-yl)-N-[(1R)-1-[3-methoxy-5-(1-methylpyrazol-4-yl)phenyl]ethyl]-2-methyl-benzamide]
IC50 (SARS-CoV-2 PLpro; [2]): < 2000 nM
% Cell Viability [1, 3]: 42.4%

COc1cc(-c2cnn(C)c2)cc([C@@H](C)NC(=O)c2cc(N3CCCNCC3)ccc2C)c1 [Example 263, 5-(1,4-Diazepan-1-yl)-N-[(1R)-1-[3-methoxy-5-(1-methylpyrazol-4-yl)phenyl]ethyl]-2-methyl-benzamide]
IC50 (SARS-CoV-2 PLpro; [2]): < 2000 nM
% Cell Viability [1, 3]: 56.4%

COc1cc(-c2cnn(C)c2)cc([C@@H](C)NC(=O)c2cc(N3CCNC4(CC4)C3)ccc2C)c1 [Example 264, 5-(4,7-Diazaspiro[2.5]octan-7-yl)-N-[(1R)-1-[3-methoxy-5-(1-methylpyrazol-4-yl)phenyl]ethyl]-2-methyl-benzamide]
IC50 (SARS-CoV-2 PLpro; [2]): < 2000 nM
% Cell Viability [1, 3]: 68.5%

COc1cc(-c2cn(C)nc2C)cc([C@@H](C)NC(=O)c2cc(N3CCCNCC3)ccc2C)c1 [Example 265, 5-(1,4-Diazepan-1-yl)-N-[(1R)-1-[3-(1,3-dimethylpyrazol-4-yl)-5-methoxy-phenyl]ethyl]-2-methyl-benzamide]
IC50 (SARS-CoV-2 PLpro; [2]): < 2000 nM
% Cell Viability [1, 3]: 40.7%

COc1cc(-c2cn(C)nc2C)cc([C@@H](C)NC(=O)c2cc(N3CCNC4(CC4)C3)ccc2C)c1 [Example 267, 5-(4,7-Diazaspiro[2.5]octan-7-yl)-N-[(1R)-1-[3-(1,3-dimethylpyrazol-4-yl)-5-methoxy-phenyl]ethyl]-2-methyl-benzamide]
IC50 (SARS-CoV-2 PLpro; [2]): < 2000 nM
% Cell Viability [1, 3]: 81.0%

COc1cc(-c2cn(C)nc2C)cc([C@@H](C)NC(=O)c2cc(N3CC4CNCC4C3)ccc2C)c1 (stereo partly drawn) [Example 268, 5-(2,3,3a,4,6,6a-Hexahydro-1H-pyrrolo[3,4-c]pyrrol-5-yl)-N-[(1R)-1-[3-(1,3-dimethylpyrazol-4-yl)-5-methoxy-phenyl]ethyl]-2-methyl-benzamide]
IC50 (SARS-CoV-2 PLpro; [2]): < 2000 nM
% Cell Viability [1, 3]: 75.0%

COc1cc(-c2cn(C)nc2C)cc([C@@H](C)NC(=O)c2cc(N3C[C@H]4CC[C@@H](C3)N4)ccc2C)c1 [Example 270, 5-[(1S,5R)-3,8-Diazabicyclo[3.2.1]octan-3-yl]-N-[(1R)-1-[3-(1,3-dimethylpyrazol-4-yl)-5-methoxy-phenyl]ethyl]-2-methyl-benzamide]
IC50 (SARS-CoV-2 PLpro): < 2000 nM
% Cell Viability ([1]; human, 24 h, 100 μM): 22.6%

COc1ccc([C@@H](C)NC(=O)c2cc(N3CC4(CNC4)C3)ccc2C)cc1-c1cnn(C)c1 [Example 271, 5-(2,6-Diazaspiro[3.3]heptan-2-yl)-N-[(1R)-1-[4-methoxy-3-(1-methylpyrazol-4-yl)phenyl]ethyl]-2-methyl-benzamide]
IC50 (SARS-CoV-2 PLpro; [2]): < 5000 nM
% Cell Viability [1, 3]: 95.2%

COc1ccc([C@@H](C)NC(=O)c2cc(N3CCN(CCO)CC3)ccc2C)cc1-c1cnn(C)c1 [Example 273, 5-[4-(2-Hydroxyethyl)piperazin-1-yl]-N-[(1R)-1-[4-methoxy-3-(1-methylpyrazol-4-yl)phenyl]ethyl]-2-methyl-benzamide]
IC50 (SARS-CoV-2 PLpro; [2]): < 5000 nM
% Cell Viability [1, 3]: 92.6%

COc1cc(-c2cnn(C)c2)cc([C@@H](C)NC(=O)c2cc(N3C[C@H]4CC[C@@H](C3)N4CC3CC3)ccc2C)c1 [Example 274, 5-[(1R,5S)-8-(Cyclopropylmethyl)-3,8-diazabicyclo[3.2.1]octan-3-yl]-N-[(1R)-1-[3-methoxy-5-(1-methylpyrazol-4-yl)phenyl]ethyl]-2-methyl-benzamide]
IC50 (SARS-CoV-2 PLpro): < 2000 nM
% Cell Viability ([1]; human, 24 h, 100 μM): 38.7%

Cc1ccc(N2CCN(C)CC2)cc1C(=O)N[C@H](C)c1cc(O)cc(-c2cnn(C)c2)c1 [Example 275, N-[(1R)-1-[3-Hydroxy-5-(1-methylpyrazol-4-yl)phenyl]ethyl]-2-methyl-5-(4-methylpiperazin-1-yl)benzamide]
IC50 (SARS-CoV-2 PLpro; [2]): < 2000 nM
% Cell Viability [1, 3]: 80.7%

Cc1ccc(N2CCN(C)CC2)cc1C(=O)N[C@H](C)c1ccc(O)c(-c2cnn(C)c2)c1 [Example 276, N-[(1R)-1-[4-Hydroxy-3-(1-methylpyrazol-4-yl)phenyl]ethyl]-2-methyl-5-(4-methylpiperazin-1-yl)benzamide]
IC50 (SARS-CoV-2 PLpro; [2]): < 2000 nM
% Cell Viability [1, 3]: 81.6%

Cc1ccc(N2CCN(C)CC2)cc1C(=O)N[C@H](C)c1ccc(OCCO)c(-c2cnn(C)c2)c1 [Example 282, N-[(1R)-1-[4-(2-Hydroxyethoxy)-3-(1-methylpyrazol-4-yl)phenyl]ethyl]-2-methyl-5-(4-methylpiperazin-1-yl)benzamide]
IC50 (SARS-CoV-2 PLpro; [2]): < 2000 nM
% Cell Viability [1, 3]: 100.0%

COc1ccc([C@@H](C)NC(=O)c2cc(N3CCN(C)CC3)ccc2C)cc1-c1cnn(CCO)c1 [Example 284, N-[(1R)-1-[3-[1-(2-Hydroxyethyl)pyrazol-4-yl]-4-methoxy-phenyl]ethyl]-2-methyl-5-(4-methylpiperazin-1-yl)benzamide]
IC50 (SARS-CoV-2 PLpro; [2]): < 2000 nM
% Cell Viability [1, 3]: 101.3%

COc1ccc([C@@H](C)NC(=O)c2cc(N3CCN(C)CC3)ccc2C)cc1-c1csc(C(=O)N(C)C)c1 [Example 285, 4-[2-Methoxy-5-[(1R)-1-[[2-methyl-5-(4-methylpiperazin-1-yl)benzoyl]amino]ethyl]phenyl]-N,N-dimethyl-thiophene-2-carboxamide]
IC50 (SARS-CoV-2 PLpro; [2]): < 2000 nM
% Cell Viability [1, 3]: 72.2%
